Like-named read-outs stand apart in the source and are kept apart here.

The values below come from patent US20260297060A1, “COMPOUNDS FOR THE DEGRADATION OF MUTANT BRAF” (C4 THERAPEUTICS, INC., priority 2023, published 2026).

In one experiment the test system is A375-NRAS^Q61K cells. Description: CTGlo Cell Viability Assay, A375-NRAS^Q61K (A375.11) cells, 96 hours. It is filed as cell-based, human. The following applies: A375.11 (A375-NRAS^Q61K) cells; for CTGlo A375.11 96 hours Emax / Emax: lowest % viability achieved. The procedure, abridged: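 A375 cells carrying BRAF V600E and NRAS Q61K were seeded at 250 cells/well with a 10-point half-log dose series (max 10 μM final). After 96 h at 37 °C, viability was read as ATP luminescence (CellTiter-Glo), background-subtracted and normalized to DMSO (100%). GI50 from 4-parameter fit; Emax is the lowest % viability.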

In the next experiment the target is T1, BRAF V600E (Homo sapiens, UniProt P15056+Q96SW2, V600E).
T1 construct: knock-in of the HiBiT tag to the endogenous BRAF V600E locus; host or cells: A375.10 (A375 clonal line, CRISPR HiBiT knock-in at the endogenous BRAF V600E locus)
Description: BRAF V600E HiBiT Degradation Assay. It is filed as cell-based. The method, boiled down: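 Endogenous HiBiT knock-in on BRAF V600E in A375 cells (clone A375.10); 11-point half-log series, top 10 μM, 2, 6 or 24 h at 37° C. Lytic HiBiT luminescence, background-subtracted, normalized to DMSO; 4-parameter fit gives DC50, Emax (residual protein) and IP (inflection point).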

[1] abbreviates: A375.10 cells, BRAF V600E, 2 hours, inflection point, read-out: HiBiT-Degradation A375.10 BRAF 2 hours IP.
Setting [2] is: A375.10 cells, BRAF V600E, 2 hours, read-out: HiBiT-Degradation A375.10 BRAF 2 hours DC50.
Setting [3] is: A375.10 cells, BRAF V600E, 2 hours, residual protein remaining.
Where [4] appears, read: A375.10 cells, HiBiT, BRAF V600E, 24 hours, read-out: HiBiT-Degradation A375.10 BRAF 24 hours DC50.
[5] abbreviates: A375.10 cells, HiBiT, BRAF V600E, 24 hours, read-out: HiBiT-Degradation A375.10 BRAF 24 hours Emax.
[6] abbreviates: A375.10 cells, HiBiT, BRAF V600E, 24 hours, read-out: HiBiT-Degradation A375.10 BRAF 24 hours IP.
Where [7] appears, read: A375.10 cells, BRAF V600E, 2 hours, residual protein remaining, read-out: HiBiT-Degradation A375.10 BRAF 2 hours Emax.

T1 sequence (P15056 whole entry V600E): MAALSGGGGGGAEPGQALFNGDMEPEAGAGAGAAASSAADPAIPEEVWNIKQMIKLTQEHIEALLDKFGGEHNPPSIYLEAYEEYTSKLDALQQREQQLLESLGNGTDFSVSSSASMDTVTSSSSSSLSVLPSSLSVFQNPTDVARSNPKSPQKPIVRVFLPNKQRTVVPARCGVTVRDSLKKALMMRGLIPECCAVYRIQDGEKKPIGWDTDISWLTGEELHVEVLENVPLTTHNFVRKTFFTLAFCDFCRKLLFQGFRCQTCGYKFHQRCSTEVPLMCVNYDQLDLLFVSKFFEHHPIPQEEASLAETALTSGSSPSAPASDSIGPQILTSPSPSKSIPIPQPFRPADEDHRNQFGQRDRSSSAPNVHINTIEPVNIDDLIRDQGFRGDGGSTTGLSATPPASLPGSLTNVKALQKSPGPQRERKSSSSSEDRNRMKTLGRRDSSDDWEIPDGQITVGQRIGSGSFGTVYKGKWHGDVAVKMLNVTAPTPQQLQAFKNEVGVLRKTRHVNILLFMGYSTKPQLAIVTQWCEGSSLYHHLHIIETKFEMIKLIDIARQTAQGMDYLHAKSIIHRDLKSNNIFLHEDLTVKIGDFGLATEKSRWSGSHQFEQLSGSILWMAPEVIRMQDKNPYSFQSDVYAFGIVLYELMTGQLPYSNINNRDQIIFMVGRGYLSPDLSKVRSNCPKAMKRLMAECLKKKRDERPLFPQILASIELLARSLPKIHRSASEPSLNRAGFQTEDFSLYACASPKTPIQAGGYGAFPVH
T1 sequence (Q96SW2 whole entry): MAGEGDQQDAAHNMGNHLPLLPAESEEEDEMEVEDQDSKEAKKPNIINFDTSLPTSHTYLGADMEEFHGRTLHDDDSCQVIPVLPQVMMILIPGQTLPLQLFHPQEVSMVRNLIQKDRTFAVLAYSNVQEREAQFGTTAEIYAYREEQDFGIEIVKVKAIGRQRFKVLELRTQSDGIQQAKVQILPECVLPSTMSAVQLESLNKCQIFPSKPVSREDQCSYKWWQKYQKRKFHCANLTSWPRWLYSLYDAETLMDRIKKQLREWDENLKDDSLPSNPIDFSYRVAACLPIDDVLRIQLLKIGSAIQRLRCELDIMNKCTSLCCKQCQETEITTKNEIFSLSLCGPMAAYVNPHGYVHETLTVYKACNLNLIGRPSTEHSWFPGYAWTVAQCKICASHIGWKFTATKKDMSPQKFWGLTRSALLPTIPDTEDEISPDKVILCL
T1 sequence (Q16531 whole entry partner): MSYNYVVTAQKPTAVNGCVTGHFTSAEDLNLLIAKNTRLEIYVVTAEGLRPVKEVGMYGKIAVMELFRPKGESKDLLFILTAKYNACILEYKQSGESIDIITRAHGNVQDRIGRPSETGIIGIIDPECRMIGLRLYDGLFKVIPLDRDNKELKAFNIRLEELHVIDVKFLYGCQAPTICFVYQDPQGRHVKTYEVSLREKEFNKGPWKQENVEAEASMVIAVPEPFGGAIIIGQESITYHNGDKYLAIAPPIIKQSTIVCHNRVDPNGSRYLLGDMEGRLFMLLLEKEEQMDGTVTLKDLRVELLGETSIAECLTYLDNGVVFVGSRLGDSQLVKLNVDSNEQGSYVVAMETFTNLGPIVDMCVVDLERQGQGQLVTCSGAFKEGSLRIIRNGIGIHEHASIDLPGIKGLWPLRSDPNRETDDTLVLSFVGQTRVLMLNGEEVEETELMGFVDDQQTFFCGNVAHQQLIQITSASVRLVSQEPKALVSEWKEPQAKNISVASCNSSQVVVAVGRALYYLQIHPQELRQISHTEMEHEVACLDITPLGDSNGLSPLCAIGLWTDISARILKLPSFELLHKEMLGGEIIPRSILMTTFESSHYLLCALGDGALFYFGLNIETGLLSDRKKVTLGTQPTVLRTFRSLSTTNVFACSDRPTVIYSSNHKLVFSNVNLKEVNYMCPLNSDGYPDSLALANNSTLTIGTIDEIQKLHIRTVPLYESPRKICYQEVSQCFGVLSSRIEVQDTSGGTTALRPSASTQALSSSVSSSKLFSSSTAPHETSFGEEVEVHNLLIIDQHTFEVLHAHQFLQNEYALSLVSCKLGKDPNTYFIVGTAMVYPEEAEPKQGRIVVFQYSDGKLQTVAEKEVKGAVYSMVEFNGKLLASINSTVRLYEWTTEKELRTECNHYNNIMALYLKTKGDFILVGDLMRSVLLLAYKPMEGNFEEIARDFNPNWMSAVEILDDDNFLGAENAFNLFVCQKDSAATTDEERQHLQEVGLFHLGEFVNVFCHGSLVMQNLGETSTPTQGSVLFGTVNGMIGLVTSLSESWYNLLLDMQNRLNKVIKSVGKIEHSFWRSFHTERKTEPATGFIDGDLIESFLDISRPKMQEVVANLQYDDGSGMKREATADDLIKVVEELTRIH

Turning to `CCN(C)S(=O)(=O)Nc1ccc(F)c(Nc2ccc3ncn([C@@H]4COC5(CCN(C6CCC(c7cc8c(cc7F)c(N7CCC(=O)NC7=O)nn8C)CC6)CC5)C4)c(=O)c3c2F)c1C#N` (single isomer, unassigned) [Compound 69], in the experiment with A375-NRAS^Q61K cells, the GI50 was less than 1000 nM. Moreover, in the experiment on A375-NRAS^Q61K cells, the “CTGlo A375.11 96 hours Emax” value is recorded as “*** (<=50%)”. For the same compound, the DC50 at BRAF V600E (setting [1]) is less than 1000 nM; at BRAF V600E (setting [2]) it was less than 1000 nM; at BRAF V600E (A375.10 cells, BRAF V600E, 6 hours, inflection point, read-out: HiBiT-Degradation A375.10 BRAF 6 hours IP), less than 1000 nM; on BRAF V600E (A375.10 cells, BRAF V600E, 6 hours, read-out: HiBiT-Degradation A375.10 BRAF 6 hours DC50), less than 1000 nM; at BRAF V600E (setting [4]) it was less than 1000 nM; on BRAF V600E (setting [6]) it was less than 1000 nM. The “HiBiT-Degradation A375.10 BRAF 2 hours Emax” value on BRAF V600E (setting [3]) was “*** (<=50%)”. Also, the Emax at BRAF V600E (A375.10 cells, BRAF V600E, 6 hours, residual protein remaining, read-out: HiBiT-Degradation A375.10 BRAF 6 hours Emax) was less than 50%; at BRAF V600E (setting [5]), less than 50%.
`CCN(C)S(=O)(=O)Nc1ccc(F)c(C(=O)c2ccc3ncn(C4CC5(CCN(C6CC7(C6)CN(c6cc8c(cc6F)c(N6CCC(=O)NC6=O)nn8C)C7)CC5)C4)c(=O)c3c2)c1F` (stereo not shown) [Compound 304, 3-[7-[2-[3-(2,4-dioxohexahydropyrimidin-1-yl)-5-fluoro-1-methyl-indazol-6-yl]-2-azaspiro[3.3]heptan-6-yl]-7-azaspiro[3.5]nonan-2-yl]-6-[3-[[ethyl(methyl)sulfamoyl]amino]-2,6-difluoro-benzoyl]-4-oxo-quinazoline] gave a GI50 in the experiment on A375-NRAS^Q61K cells (Homo sapiens, 96 h) of 1000 to 10000 nM. Moreover, the Emax in the experiment on A375-NRAS^Q61K cells (Homo sapiens, 96 h) is 50 to 90%; at BRAF V600E (setting [7]) it was 50 to 90%; on BRAF V600E (setting [5]), less than 50%. Moreover, the DC50 at BRAF V600E (setting [1]) was less than 1000 nM; on BRAF V600E (setting [2]) it was 1000 to 10000 nM; on BRAF V600E (setting [4]) it was less than 1000 nM; at BRAF V600E (setting [6]) it was less than 1000 nM.
For the compound `CN(CCO)S(=O)(=O)Nc1ccc(F)c(Oc2ccc3ncc(C4CC5(C4)CN(C4CCC(c6cc7c(cc6F)c(N6CCC(=O)NC6=O)nn7C)CC4)C5)nc3c2)c1C#N` (single isomer, unassigned) [Compound 322, 7-[2-cyano-6-fluoro-3-[[2-hydroxyethyl(methyl)sulfamoyl]amino]phenoxy]-2-[2-[4-[3-(2,4-dioxohexahydropyrimidin-1-yl)-5-fluoro-1-methyl-indazol-6-yl]cyclohexyl]-2-azaspiro[3.3]heptan-6-yl]quinoxaline], in the experiment with A375-NRAS^Q61K cells, the GI50 is more than 10000 nM. Further, in the experiment with A375-NRAS^Q61K cells, the “CTGlo A375.11 96 hours Emax” value is “** (<90% and >50%)”. In addition, the DC50 on BRAF V600E (setting [1]) is less than 1000 nM; at BRAF V600E (setting [2]), 1000 to 10000 nM. In addition, the “HiBiT-Degradation A375.10 BRAF 2 hours Emax” value on BRAF V600E (setting [3]) was “** (<90% and >50%)”.
Turning to `CCN(C)S(=O)(=O)Nc1ccc(F)c(Oc2ccc3ncc(OC4CC5(CCN(C6CCC(c7cc8c(cc7F)c(N7CCC(=O)NC7=O)nn8C)CC6)CC5)C4)nc3c2)c1C#N` (single isomer, unassigned) [Compound 219, 7-[2-cyano-3-[[ethyl(methyl)sulfamoyl]amino]-6-fluoro-phenoxy]-2-[[7-[4-[3-(2,4-dioxohexahydropyrimidin-1-yl)-5-fluoro-1-methyl-indazol-6-yl]cyclohexyl]-7-azaspiro[3.5]nonan-2-yl]oxy]quinoxaline], in the experiment on A375-NRAS^Q61K cells, the GI50 is more than 10000 nM and the “CTGlo A375.11 96 hours Emax” value is listed as “*** (<=50%)”. Also, on BRAF V600E, the “HiBiT-Degradation A375.10 BRAF 2 hours Emax” value is “** (<90% and >50%)”. The DC50 at BRAF V600E (setting [1]) is less than 1000 nM. For the same compound, the DC50 on BRAF V600E (setting [2]) is less than 1000 nM.
For the compound `CCN(C)S(=O)(=O)Nc1ccc(F)c(Oc2ccc3ncn([C@H]4CO[C@]5(CCN(C6CCC(c7cc8c(cc7F)c(N7CCC(=O)NC7=O)nn8C)CC6)C5)C4)c(=O)c3c2)c1C#N` (single isomer, unassigned) [Compound 288], in the experiment with A375-NRAS^Q61K cells, the GI50 is more than 10000 nM. Moreover, the Emax with A375-NRAS^Q61K cells (Homo sapiens, 96 h) lay in the range of 50 to 90%; at BRAF V600E (setting [7]), 50 to 90%. Moreover, the DC50 was less than 1000 nM on BRAF V600E (setting [1]) and 1000 to 10000 nM at BRAF V600E (setting [2]).
Regarding `CCN(C)S(=O)(=O)Nc1ccc(F)c(Oc2ccc3ncn(C4CC5(CCN(C6CCC(c7cc8c(cc7F)c(N7CCC(=O)NC7=O)nn8C)CC6)CC5)C4)c(=O)c3c2)c1F` (single isomer, unassigned) [Compound 179, 3-[7-[4-[3-(2,4-dioxohexahydropyrimidin-1-yl)-5-fluoro-1-methyl-indazol-6-yl]cyclohexyl]-7-azaspiro[3.5]nonan-2-yl]-6-[3-[[ethyl(methyl)sulfamoyl]amino]-2,6-difluoro-phenoxy]-4-oxo-quinazoline], in the experiment on A375-NRAS^Q61K cells, the GI50 fell in the range of 1000 to 10000 nM; the “CTGlo A375.11 96 hours Emax” value was “** (<90% and >50%)”. Further, the “HiBiT-Degradation A375.10 BRAF 2 hours Emax” value on BRAF V600E was “** (<90% and >50%)”. In addition, on BRAF V600E (setting [1]), the DC50 is less than 1000 nM. The DC50 at BRAF V600E (setting [2]) was less than 1000 nM.
In turn, `CN(CCO)S(=O)(=O)Nc1ccc(F)c(Oc2ccc3ncn([C@H]4COC5(CCN(C6CC7(C6)CN(c6cc8c(cc6F)c(N6CCC(=O)NC6=O)nn8C)C7)CC5)C4)c(=O)c3c2)c1C#N` [Compound 130, (3R)-3-[6-[2-cyano-6-fluoro-3-[[2-hydroxyethyl(methyl)sulfamoyl]amino]phenoxy]-4-oxo-quinazolin-3-yl]-8-[2-[3-(2,4-dioxohexahydropyrimidin-1-yl)-5-fluoro-1-methyl-indazol-6-yl]-2-azaspiro[3.3]heptan-6-yl]-1-oxa-8-azaspiro[4.5]decane] returned a GI50 with A375-NRAS^Q61K cells (Homo sapiens, 96 h) of more than 10000 nM. Besides, the Emax fell in the range of 50 to 90% in the experiment with A375-NRAS^Q61K cells (Homo sapiens, 96 h) and 50 to 90% at BRAF V600E (setting [7]). The DC50 at BRAF V600E (setting [1]) and at BRAF V600E (setting [2]) was less than 1000 nM throughout.
`CCN(C)S(=O)(=O)Nc1ccc(F)c(Oc2ccc3ncn([C@@H]4C[C@@H]5CN(C6CCC(c7cc8c(cc7F)c(N7CCC(=O)NC7=O)nn8C)CC6)C[C@@H]5C4)c(=O)c3c2)c1C#N` (single isomer, unassigned) [Compound 17]: the concentration for 50% growth inhibition (GI50) in the experiment with A375-NRAS^Q61K cells was more than 10000 nM. Also, in the experiment on A375-NRAS^Q61K cells, the “CTGlo A375.11 96 hours Emax” value is “** (<90% and >50%)”. Besides, the DC50 on BRAF V600E (setting [1]) and at BRAF V600E (setting [2]) was less than 1000 nM in each case. The “HiBiT-Degradation A375.10 BRAF 2 hours Emax” value on BRAF V600E (setting [3]) is “** (<90% and >50%)”.
The compound `CCN(C)S(=O)(=O)Nc1ccc(F)c(Oc2ccc3ncc([C@@H]4COC5(CCN(C6CC7(C6)CN(c6cc8c(cc6F)c(N6CCC(=O)NC6=O)nn8C)C7)CC5)C4)nc3c2)c1C#N` [Compound 161, (3R)-3-[7-[2-cyano-3-[[ethyl(methyl)sulfamoyl]amino]-6-fluoro-phenoxy]quinoxalin-2-yl]-8-[2-[3-(2,4-dioxohexahydropyrimidin-1-yl)-5-fluoro-1-methyl-indazol-6-yl]-2-azaspiro[3.3]heptan-6-yl]-1-oxa-8-azaspiro[4.5]decane] registered a GI50 in the experiment on A375-NRAS^Q61K cells (Homo sapiens, 96 h) of 1000 to 10000 nM. Further, the Emax in the experiment on A375-NRAS^Q61K cells (Homo sapiens, 96 h) lay in the range of 50 to 90%; on BRAF V600E (read-out: HiBiT-Degradation A375.10 BRAF 2 hours Emax, A375.10 cells, BRAF V600E, 2 hours, residual protein remaining), 50 to 90%. The values for the DC50 on BRAF V600E (setting [1]) and at BRAF V600E (setting [2]) were less than 1000 nM and more than 10000 nM, respectively.
With `CCN(C)S(=O)(=O)Nc1ccc(F)c(Oc2ccc3ncn(C4CC5(CCN(C6CC7(C6)CN(c6cc8c(cc6F)c(N6CCC(=O)NC6=O)nn8C)C7)C5)C4)c(=O)c3c2)c1C#N` (single isomer, unassigned) [Compound 301, 6-[2-cyano-3-[[ethyl(methyl)sulfamoyl]amino]-6-fluoro-phenoxy]-3-[6-[2-[3-(2,4-dioxohexahydropyrimidin-1-yl)-5-fluoro-1-methyl-indazol-6-yl]-2-azaspiro[3.3]heptan-6-yl]-6-azaspiro[3.4]octan-2-yl]-4-oxo-quinazoline], in the experiment on A375-NRAS^Q61K cells (Homo sapiens, 96 h), the GI50 was less than 1000 nM. Besides, the Emax in the experiment with A375-NRAS^Q61K cells (Homo sapiens, 96 h) was in the range of 50 to 90%; on BRAF V600E (setting [7]), 50 to 90%. The DC50 at BRAF V600E (setting [1]) and on BRAF V600E (setting [2]) was less than 1000 nM each time.
As for `CO[C@H]1CCN(S(=O)(=O)Nc2ccc(F)c(Oc3ccc4ncn([C@H]5COC6(CCN(C7CCC(c8ccc(NC9CCC(=O)NC9=O)cc8F)CC7)CC6)C5)c(=O)c4c3)c2C#N)C1` (single isomer, unassigned) [Compound 140], the GI50 in the experiment with A375-NRAS^Q61K cells (Homo sapiens, 96 h) is less than 1000 nM. Also, the Emax was less than 50% in the experiment on A375-NRAS^Q61K cells (Homo sapiens, 96 h) and less than 50% on BRAF V600E (setting [7]). For the same compound, the DC50 at BRAF V600E (setting [1]) and on BRAF V600E (setting [2]) was less than 1000 nM each time.
